Where only a bound is given, the exact number is not on record here.

Data set [1] deals with Aβ42 production. As to the kind of experiment: Suppressive activity of Aβ42 production in neuroblast expressing human APP695 (ELISA of secreted Aβ42). Format: cell-based. To be noted: secreted Aβ42, SH-SY5Y-APPwt cells, 24 hours. On the procedure:
Dose dependent effect of each test compound was evaluated by measurement of secreted Aβ42 and cell viability in SH-SY5Y-APPwt cells. Secreted Aβ42 was quantified by an ELISA assay and cell viability was measured using a cell count reagent.
SH-SY5Y-APPwt cells were generated from human SH-SY5Y neuroblast by transfection of human APP695 DNA as a stable cell-line and cultured in DMEM supplemented with 10% FCS.
SH-SY5Y-APPwt cells were plated at 1.2×10^5 cells/well/150 μl in 96-well plates. A solution of the test compound in DMSO was diluted with DMEM to a concentration 4-fold higher than the final concentration. 50 μl of the diluted solution was sufficiently mixed with the cells and the final DMEM solution was 200 μl/well. The final DMSO concentration was 1%. As a control compound, a γ-secretase inhibitor, DAPT (Calbiochem) was used. 24 hours after, the culture supernatant was collected and appropriately diluted for ELISA quantification of Aβ42. Cells were used for cell viability assay.
Human/Rat β Amyloid(42) ELISA Kit WAKO (WAKO Pure Chemical Industries) was used for ELISA. ELISA was carried out according to the protocols recommended by the manufacturer's instructions. The results were shown as percentage to the Aβ concentration in the medium of control group (% of Control) and then IC50 values of each test compounds were calculated. Cell viability was measured using Cell Count Reagent SF (NACALAI TESQUE) according to the protocols recommended by the manufacturer's instructions. The results were shown as percentage to cell viability of control group (% of Control) and reduction of cell viability was not seen.

Data set [2] concerns the target CYP3A4 (Homo sapiens, UniProt P08684). As to the kind of experiment: CYP3A4 fluorescent MBI test. It counts as in vitro ADME. Set-up: host or cells: E. coli. To be noted: E. coli-expressing CYP3A4, substrate 7-BFC, pre-reaction 0 or 30 minutes. On the procedure:
The CYP3A4 fluorescent MBI test is a test to examine enhancement of CYP3A4 inhibition by metabolic reaction of the compound. Here, E. coli-expressing CYP3A4 was used as an enzyme, and a reaction wherein 7-benzyloxy trifluoromethylcumarin (BFC) was debenzylated by the CYP3A4 enzyme into a fluorescent metabolite 7-hydroxytrifluoromethylcumarin (HFC) was employed as an indicator reaction.
The reaction conditions are as follows.
Substrate: […] 7-BFC; Pre-reaction time: 0 or 30 minutes; Reaction time: 15 minutes; Reaction temperature: 25° C. […]
The enzyme and a test compound solution are added to a K-Pi buffer (pH 7.4) in the aforementioned amounts for the pre-reaction so that a pre-reaction solution is prepared, and this solution is put into a 96-well plate. […] With respect to each of the plates on which the indicator reaction is performed, the fluorescence value of the metabolite 7-HFC is measured with a fluorescence plate reader (Ex=420 nm, Em=535 nm).
Control (100%) is prepared by adding only DMSO, a solvent to dissolve the test compound, to the reaction system. The remaining activity (%) at each concentration after adding the test compound solution is calculated, and the IC50 value is calculated from the concentration and inhibition percentage by inverse estimation with the logistic model. […]

Data set [3] deals with T1, hERG channel (IKr) (Homo sapiens, UniProt Q12809).
T1 construct: expressed in transfected cells; host or cells: HEK293
Put plainly: hERG test (whole-cell patch clamp, IKr). Format: cell-based. Conditions: HEK293 cells that express hERG, pH 7.4, HEK293 cell expressing hERG, room temperature, concentration not given, read-out: inhibitory percentage relative to the maximum tail current (IKr). From the text:
For the purpose of risk assessment for QT prolongation on an electrocardiogram, the action on delayed rectifier K+ current (IKr) which plays an important role on a process of ventricular repolarization is studied using a HEK293 cell with a human ether-a-go-go related gene (hERG) channel expressed therein.
A cell is maintained at a membrane potential of −80 mV, and then +50 mV of a depolarizing stimulus is applied to the cell for 2 seconds and further −50 mV of a repolarizing stimulus is applied thereto for 2 seconds by a whole-cell patch clamp technique with a fully-automatic patch clamp system (PatchXpress 7000A, Axon Instruments Inc.), and the induced IKr is recorded. As the current generated is stabilized, an extracellular fluid with the test compound dissolved therein at a target concentration (NaCl: 137 mmol/L, KCl: 4 mmol/L, CaCl2.2H2O: 1.8 mmol/L, MgCl2.6H2O: 1 mmol/L, glucose: 10 mmol/L, HEPES (4-(2-hydroxyethyl)-1-piperazineethanesulfonic acid): 10 mmol/L, pH=7.4) is applied to the cell for 10 minutes under room temperature conditions. The absolute value of the maximum tail current is determined from the obtained IKr with an analysis software (DataXpress ver. 1, Molecular Devices Corporation) based on a current value at a maintained membrane potential. Further, an inhibitory percentage relative to the maximum tail current before application of the test compound is calculated, and influence of the test compound on IKr is evaluated in comparison with the medium application group (0.1% dimethyl sulfoxide solution).
In general terms: The hERG channel carries a current that helps repolarise heart muscle cells.

Data set [4] can be described thus: Solubility test. Conditions: kinetic from dmso stock; 1% DMSO, artificial intestinal juice pH 6.8, 16 hours at 25° C. It counts as physicochemical. As to the method:
The solubility of each compound is determined under 1% DMSO addition conditions. A 10 mM solution of the compound is prepared with DMSO, and 6 μL of the compound solution is added to 594 μL of an artificial intestinal juice (water and 118 mL of 0.2 mol/L NaOH reagent are added to 250 mL of 0.2 mol/L potassium dihydrogen phosphate reagent to reach 1000 mL) with a pH of 6.8. The mixture is left standing for 16 hours at 25° C., and the mixture is vacuum-filtered. The filtrate is two-fold diluted with methanol/water=1/1, and the compound concentration in the filtrate is measured with HPLC or LC/MS/MS by the absolute calibration method.

The nature of data set [5]: Metabolic stability test. Format: in vitro ADME. To be noted: human liver microsomes 0.5 mg protein/mL, 1 mmol/L NADPH, 30 minutes at 37° C. On the procedure: The test compound is reacted with commercially available pooled human liver microsomes for a predetermined time period. The residual rate is calculated by comparing the reacted sample and unreacted sample, and thus the degree of metabolism in liver is evaluated. In 0.2 mL of a buffer (50 mmol/L tris-HCl pH 7.4, 150 mmol/L potassium chloride, 10 mmol/L magnesium chloride) containing human liver microsomes 0.5 mg protein/mL, reaction is carried out in the presence of 1 mmol/L NADPH for 0 minute or 30 minutes at 37° C. (oxidative reaction). After the reaction, 50 μL of the reaction solution is added to and mixed with 100 μl of a solution of methanol/acetonitrile=1/1 (v/v), and the mixture is centrifuged for 15 minutes at 3000 rpm. The test compound in the centrifuged supernatant is quantified by LC/MS/MS, and the residual amount of the test compound after the reaction is calculated based on the compound amount at O-minute reaction set as 100%.
Background: Liver microsomes are vesicles of endoplasmic reticulum, rich in cytochrome P450 enzymes.

In data set [6] the test system is γ-secretase. Put plainly: Inhibition of γ-secretase activity: CTFβ ELISA in SH-SY5Y-APPwt cells. Format: cell-based, human. To be noted: concentration 1-fold and 10-fold higher than IC50 for Aβ42 inhibition, 24 hours. On the procedure:
Inhibition of γ-secretase activity of the test compounds were evaluated by assessment of APP processing by γ-secretase, i.e., by measurement of a γ-secretase substrate C-terminal fragment β (CTFβ) in SH-SY5Y-APPwt cells. Cells were treated in test compound concentration 1-fold and 10-fold higher than its IC50 value for Aβ42 inhibition. CTFβ accumulated by inhibition of γ-secretase activity was quantified by an ELISA assay. SH-SY5Y-APPwt cells were generated from human SH-SY5Y neuroblast by transfection of human APP695 DNA as a stable cell-line and cultured in DMEM supplemented with 10% FCS. SHSY5Y-APPwt cells were plated at 1.0×10^6 cells/well/1 ml DMEM in 6-well plates. A solution of the test compound in DMSO was diluted with DMEM to a concentration 2-fold higher than the final concentration. 1 ml of the diluted solution was sufficiently mixed with the cell and the final DMEM solution was 2 mL/well. The final DMSO concentration was 1%. As a control compound, a γ-secretase inhibitor, DAPT (Calbiochem) was used. […] Protein concentrations in the supernatants were measured by Protein assay Kit (Pierce). The supernatants were diluted and used for CTFβ quantification by βCTF ELISA Kit (IBL) The results were shown as percentage to the CTFβ concentration of control group (added only DMSO) (% of Control), and increasing and decreasing CTFβ of the test compound was calculated. […]

T1 sequence (Q12809 whole entry): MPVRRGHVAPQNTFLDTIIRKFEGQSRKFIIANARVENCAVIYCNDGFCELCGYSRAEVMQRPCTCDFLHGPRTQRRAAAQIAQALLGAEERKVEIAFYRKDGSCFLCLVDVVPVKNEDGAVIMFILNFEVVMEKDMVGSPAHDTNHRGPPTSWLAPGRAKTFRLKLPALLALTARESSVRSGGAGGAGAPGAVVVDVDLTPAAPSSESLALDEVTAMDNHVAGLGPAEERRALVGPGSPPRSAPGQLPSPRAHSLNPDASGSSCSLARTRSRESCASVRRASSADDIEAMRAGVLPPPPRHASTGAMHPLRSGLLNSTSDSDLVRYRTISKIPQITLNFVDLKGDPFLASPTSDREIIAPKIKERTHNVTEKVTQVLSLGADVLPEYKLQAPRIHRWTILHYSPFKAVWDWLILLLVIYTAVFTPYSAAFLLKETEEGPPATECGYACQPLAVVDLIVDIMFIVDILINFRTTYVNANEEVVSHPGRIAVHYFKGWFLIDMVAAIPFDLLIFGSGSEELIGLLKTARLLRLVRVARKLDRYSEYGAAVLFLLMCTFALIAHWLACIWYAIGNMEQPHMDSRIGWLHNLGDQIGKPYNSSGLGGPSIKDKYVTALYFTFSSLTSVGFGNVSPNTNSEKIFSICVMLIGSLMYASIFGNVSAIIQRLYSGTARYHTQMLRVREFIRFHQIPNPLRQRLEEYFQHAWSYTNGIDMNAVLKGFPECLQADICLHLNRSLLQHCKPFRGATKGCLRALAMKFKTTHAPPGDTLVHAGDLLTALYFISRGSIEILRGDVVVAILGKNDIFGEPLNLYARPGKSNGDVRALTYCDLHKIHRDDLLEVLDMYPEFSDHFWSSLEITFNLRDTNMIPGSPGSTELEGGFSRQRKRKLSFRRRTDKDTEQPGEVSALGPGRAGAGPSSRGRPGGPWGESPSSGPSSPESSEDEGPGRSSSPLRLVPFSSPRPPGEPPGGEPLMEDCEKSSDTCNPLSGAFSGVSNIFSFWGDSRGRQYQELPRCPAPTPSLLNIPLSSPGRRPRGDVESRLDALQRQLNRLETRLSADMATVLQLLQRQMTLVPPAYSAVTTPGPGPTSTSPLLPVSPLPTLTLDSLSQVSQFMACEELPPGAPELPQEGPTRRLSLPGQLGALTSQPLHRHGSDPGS
Sequence of CYP3A4 (P08684 whole entry): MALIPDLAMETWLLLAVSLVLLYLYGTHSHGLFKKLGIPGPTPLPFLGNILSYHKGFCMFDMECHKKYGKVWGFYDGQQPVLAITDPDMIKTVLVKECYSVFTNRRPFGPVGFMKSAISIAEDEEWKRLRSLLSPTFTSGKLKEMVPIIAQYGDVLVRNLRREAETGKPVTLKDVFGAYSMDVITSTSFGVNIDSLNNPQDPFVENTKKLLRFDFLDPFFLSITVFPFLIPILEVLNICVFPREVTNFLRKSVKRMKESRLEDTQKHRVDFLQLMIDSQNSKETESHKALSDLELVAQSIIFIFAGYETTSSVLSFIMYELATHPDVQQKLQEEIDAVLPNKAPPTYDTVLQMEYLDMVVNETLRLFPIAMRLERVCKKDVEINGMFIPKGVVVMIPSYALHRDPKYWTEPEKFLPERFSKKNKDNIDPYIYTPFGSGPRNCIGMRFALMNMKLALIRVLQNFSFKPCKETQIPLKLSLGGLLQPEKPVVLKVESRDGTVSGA

As for `COc1cc(NS(=O)(=O)c2ccc(Cl)c(Cl)c2)ccc1-n1cnc(C)c1` [Compound 1], the IC50 – broadly, the concentration that gives 50% inhibition – in data set [1] came out at 0.9 µM. The “CYP3A4 MBI: difference of the IC50 values” in data set [2] is on record as “(−) (when the difference is 3 μM or lower, it is regarded as (−))”.
In the case of `COc1cc(NS(=O)(=O)Cc2cccc(Cl)c2)ccc1-n1cnc(C)c1` [Compound 38], the midpoint of inhibition in data set [1], the IC50, lay at 6.6 µM.
On to `COc1cc(NS(=O)(=O)c2ccccc2F)ccc1-n1cnc(C)c1` [Compound 69], for which, in data set [3], the inhibition at 10 min turned out to be 6.4%.
In the case of `COc1cc(NS(=O)(=O)c2ccccc2[N+](=O)[O-])ccc1-n1cnc(C)c1` [Compound 74], the solubility (commonly how much of the substance goes into solution per volume) at 16 h in data set [4] is greater than 50 µM. In addition, the inhibition at 10 min in data set [3] turned out to be 1.1%.
As to `COc1cc(NS(=O)(=O)c2ccccc2-c2csc3ccccc23)ccc1-n1cnc(C)c1` [Compound 111], the “CYP3A4 MBI: difference of the IC50 values” in data set [2] is listed as “(−) (when the difference is 3 μM or lower, it is regarded as (−))”.
As to `COc1cc(NS(=O)(=O)c2ccc(Cl)nc2)ccc1-n1cnc(C)c1` [Compound 113], the “residual amount of the test compound after the reaction” value in data set [5] was determined as 97.0%. In addition, the inhibition at 10 min in data set [3] was found to be 8.5%.
With `COc1cc(NS(=O)(=O)c2cccnc2Cl)ccc1-n1cnc(C)c1` [Compound 115], in data set [5], the “residual amount of the test compound after the reaction” value is reported as 97.8%.
Consider `COc1cc(NS(=O)(=O)c2ccccc2-c2ccncc2)ccc1-n1cnc(C)c1` [Compound 178], for which, in data set [4], the solubility at 16 h was greater than 50 µM.
As to `COc1cc(N2Cc3ccc(-c4ccccc4Cl)cc3C2=O)ccc1-n1cnc(C)c1` [Compound 189], in data set [1], half-maximal inhibition (IC50) required 1.6 µM.
Molecule `COc1cc(N2CCC(NC(=O)c3cccc(Cl)c3)C2=O)ccc1-n1cnc(C)c1` (centres unmarked) [Compound 201] displayed a half-maximal inhibitory concentration (IC50) in data set [1] of 0.8 µM.
On to `COc1cc(N2CCC(NCc3ccc(Cl)cc3)C2=O)ccc1-n1cnc(C)c1` (centres unmarked) [Compound 231], for which, in data set [1], the half-maximal inhibitory concentration (IC50) was 1.8 µM.
The same measure, in the same setting: next, `COc1cc(N2CCC(C(c3ccccc3)c3ccccc3)C2=O)ccc1-n1cnc(C)c1` (centres unmarked) [Compound 259]: 0.7 µM; `COc1cc(NC(=O)Cc2ccc(Cl)c(Cl)c2)ccc1-n1cnc(C)c1` [Compound E8]: 1.1 µM.
With `C[C@H](NC(=O)Cc1cc(F)cc(F)c1)C(=O)N[C@H](C(=O)OC(C)(C)C)c1ccccc1` [DAPT], in data set [6], the “change of CTFβ” value is “dose-dependently increased CTFβ”.

The values are drawn from patent US20120135997A1, “PHARMACEUTICAL COMPOSITION COMPRISING A LACTAM OR BENZENESULFONAMIDE COMPOUND” (Shionogi & Co., Ltd., priority 2009, published 2012).
